Assay results as given in US20230219979A1, “PYRAZOLO[1,5-a]PYRIDINE COMPOUND, PREPARATION METHOD THEREFOR AND USE THEREOF” (SHENZHEN ZHONGGE BIOLOGICAL TECHNOLOGY CO., LTD., priority 2019, published 2023).
Read-outs that look alike come from different tables or passages of the source.

Key:
RET G810R kinase = RET G810R kinase (Homo sapiens, UniProt P07949, G810R); assay: HTRF method for testing the inhibitory activity against RET G810R; type: biochemical; conditions: for IC50: HTRF; for inhibitory activity against G810R (in words): mutant strain of RET kinase
RET G810S kinase = RET G810S kinase (Homo sapiens, UniProt P07949, G810S); assay: HTRF method for testing the inhibitory activity against RET G810S; type: biochemical; conditions: for IC50: HTRF; for inhibitory activity against G810S (in words): mutant strain of RET kinase
Wild-type RET kinase = Wild-type RET kinase (Homo sapiens, UniProt P07949); assay: HTRF method for testing the inhibitory activity of compounds against RET; type: biochemical
Ba/F3-KIF5B-RET cell = target: T1, Ba/F3-KIF5B-RET cell (Homo sapiens, UniProt P07949); assay: CellTiter-Glo luminescence assay, inhibitory activity against Ba/F3-KIF5B-RET cell; type: cell-based
T1 construct: fused on or other part: P33176 (Kinesin-1 heavy chain)
Text: (C) In Vitro Screening Experiment - CellTiter-Glo Luminescence Assay for Testing The inhibitory activity of compounds against Ba/F3-KIF5B-RET cell
• 1. The mammalian cell expression vector containing human KIF5B-RET cDNA was introduced into Ba/F3 cells using the Neon® transfection system method, and the surviving clones screened by puromycin were subjected to cell growth inhibitory function experiments and Western blotting to verify cell lines with stable and high expression of RET. • 2. Cells were cultured in RPMI 1640 medium containing 10% fetal bovine serum, 1% penicillin-streptomycin, and 2 µg/mL puromycin, and then placed in a 37° C., 5% carbon dioxide cell incubator. • 3. The test compound (5 mM stock) was diluted 2.5 folds to […] with 100% dimethyl sulfoxide; and the compound was diluted into 10 concentrations at an equal ratio of 1:3 in a 384-well dilution plate. • 4. 0.2 µL of the serially diluted compound was added to a 384-well cell culture plate (Corning, 3570) using an Echo 550 pipetting system, 2 replicate wells for each concentration, and the final concentration of dimethyl sulfoxide was 0.5% (v/v). The gradient concentrations of the test compound were 5000, 1666.7, 555.5, 185.18, 61.72, 20.57, 6.858, 2.286, 0.764, 0.254 nM. • 5. 40 µL of Ba/F3-KIF5B-RET cell suspension containing 800 cells was added to each well, and incubated for 72 h in a 5% CO2 cell incubator. • 6. 20 µL of Cell Titer-Glo reagent was added to each well of the cell culture plate, and the culture system was then shaken and mixed thoroughly for 2 min to lyse the cells, the cells were then incubated at room temperature for 30 min, and the […] signal values were then read with an Envision 2104 microplate reader. • 7. By fitting the data with XLFit 5.0 based on the parameters formula, the IC50 value was calculated as: • [formula]

VEGFR2 kinase = VEGFR2 kinase (Homo sapiens, UniProt P35968); assay: HTRF method for testing the inhibitory activity of compounds against VEGFR2; type: biochemical
[1] = HTRF, read-out: Wild-type RET kinase
[2] = 72 h, read-out: Ba/F3-KIF5B-RET cell activity

Wild-type RET kinase, sequence (P07949 29-1114): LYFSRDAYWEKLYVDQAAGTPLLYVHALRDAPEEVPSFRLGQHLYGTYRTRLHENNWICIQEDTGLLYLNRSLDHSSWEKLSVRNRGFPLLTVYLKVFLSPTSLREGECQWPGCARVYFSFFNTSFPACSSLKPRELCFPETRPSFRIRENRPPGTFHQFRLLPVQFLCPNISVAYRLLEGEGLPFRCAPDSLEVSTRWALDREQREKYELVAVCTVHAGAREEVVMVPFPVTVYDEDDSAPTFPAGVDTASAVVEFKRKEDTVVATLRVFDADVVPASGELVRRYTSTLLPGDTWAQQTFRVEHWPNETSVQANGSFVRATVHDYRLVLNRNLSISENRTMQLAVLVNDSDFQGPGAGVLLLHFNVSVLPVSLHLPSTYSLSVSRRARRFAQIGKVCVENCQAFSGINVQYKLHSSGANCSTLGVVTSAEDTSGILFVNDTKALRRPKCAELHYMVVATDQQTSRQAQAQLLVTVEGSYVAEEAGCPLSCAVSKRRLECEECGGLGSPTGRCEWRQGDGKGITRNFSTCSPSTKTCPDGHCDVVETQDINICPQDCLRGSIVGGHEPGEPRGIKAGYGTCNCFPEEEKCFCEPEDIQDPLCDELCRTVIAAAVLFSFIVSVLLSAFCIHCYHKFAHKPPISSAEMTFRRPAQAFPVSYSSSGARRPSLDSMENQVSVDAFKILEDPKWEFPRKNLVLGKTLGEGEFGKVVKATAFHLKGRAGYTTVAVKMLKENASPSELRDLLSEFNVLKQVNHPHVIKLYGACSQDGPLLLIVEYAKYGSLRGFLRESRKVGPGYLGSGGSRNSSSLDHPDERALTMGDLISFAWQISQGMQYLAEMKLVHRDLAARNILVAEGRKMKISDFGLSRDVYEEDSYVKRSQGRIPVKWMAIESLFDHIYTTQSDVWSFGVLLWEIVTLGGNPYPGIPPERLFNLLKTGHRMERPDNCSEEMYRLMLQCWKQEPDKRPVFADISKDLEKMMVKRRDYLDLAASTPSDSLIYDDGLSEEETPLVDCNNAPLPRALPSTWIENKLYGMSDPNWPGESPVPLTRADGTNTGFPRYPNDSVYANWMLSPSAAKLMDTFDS
RET G810S kinase, sequence (P07949 29-1114 G810S): as the sequence (P07949 29-1114) above, with G782S counted along it
RET G810R kinase, sequence (P07949 29-1114 G810R): as the sequence (P07949 29-1114) above, with G782R counted along it
T1 sequence (P07949 whole entry, stated change not applied, the tested form may be a part): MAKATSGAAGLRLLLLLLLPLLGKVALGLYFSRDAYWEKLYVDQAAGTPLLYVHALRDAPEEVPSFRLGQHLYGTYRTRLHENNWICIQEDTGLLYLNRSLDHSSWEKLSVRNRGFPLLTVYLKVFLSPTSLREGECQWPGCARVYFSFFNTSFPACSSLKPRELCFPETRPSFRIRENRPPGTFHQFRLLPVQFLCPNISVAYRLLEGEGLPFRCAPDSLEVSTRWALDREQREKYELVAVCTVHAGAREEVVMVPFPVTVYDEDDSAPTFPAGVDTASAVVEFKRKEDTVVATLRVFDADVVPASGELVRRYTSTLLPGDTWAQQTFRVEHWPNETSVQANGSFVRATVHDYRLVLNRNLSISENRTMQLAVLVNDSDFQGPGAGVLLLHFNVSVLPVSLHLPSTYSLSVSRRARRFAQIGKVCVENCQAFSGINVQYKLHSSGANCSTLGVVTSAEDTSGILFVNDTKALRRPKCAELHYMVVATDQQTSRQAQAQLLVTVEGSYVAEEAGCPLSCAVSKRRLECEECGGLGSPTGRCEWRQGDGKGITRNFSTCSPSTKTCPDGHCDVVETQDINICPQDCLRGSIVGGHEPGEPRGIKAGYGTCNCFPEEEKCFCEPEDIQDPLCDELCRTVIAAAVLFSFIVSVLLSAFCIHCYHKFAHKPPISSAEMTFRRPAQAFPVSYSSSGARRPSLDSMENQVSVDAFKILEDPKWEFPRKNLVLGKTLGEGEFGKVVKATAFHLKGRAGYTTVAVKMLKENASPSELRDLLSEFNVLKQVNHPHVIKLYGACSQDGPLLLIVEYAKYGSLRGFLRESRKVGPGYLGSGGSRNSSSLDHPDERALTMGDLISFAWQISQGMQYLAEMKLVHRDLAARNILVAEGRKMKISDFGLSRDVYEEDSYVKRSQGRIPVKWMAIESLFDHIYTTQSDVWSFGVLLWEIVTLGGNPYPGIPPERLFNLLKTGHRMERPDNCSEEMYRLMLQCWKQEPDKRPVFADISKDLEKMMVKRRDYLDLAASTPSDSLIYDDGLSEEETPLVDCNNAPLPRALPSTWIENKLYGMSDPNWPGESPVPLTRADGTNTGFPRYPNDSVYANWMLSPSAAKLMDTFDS
VEGFR2 kinase, sequence (P35968 20-1356): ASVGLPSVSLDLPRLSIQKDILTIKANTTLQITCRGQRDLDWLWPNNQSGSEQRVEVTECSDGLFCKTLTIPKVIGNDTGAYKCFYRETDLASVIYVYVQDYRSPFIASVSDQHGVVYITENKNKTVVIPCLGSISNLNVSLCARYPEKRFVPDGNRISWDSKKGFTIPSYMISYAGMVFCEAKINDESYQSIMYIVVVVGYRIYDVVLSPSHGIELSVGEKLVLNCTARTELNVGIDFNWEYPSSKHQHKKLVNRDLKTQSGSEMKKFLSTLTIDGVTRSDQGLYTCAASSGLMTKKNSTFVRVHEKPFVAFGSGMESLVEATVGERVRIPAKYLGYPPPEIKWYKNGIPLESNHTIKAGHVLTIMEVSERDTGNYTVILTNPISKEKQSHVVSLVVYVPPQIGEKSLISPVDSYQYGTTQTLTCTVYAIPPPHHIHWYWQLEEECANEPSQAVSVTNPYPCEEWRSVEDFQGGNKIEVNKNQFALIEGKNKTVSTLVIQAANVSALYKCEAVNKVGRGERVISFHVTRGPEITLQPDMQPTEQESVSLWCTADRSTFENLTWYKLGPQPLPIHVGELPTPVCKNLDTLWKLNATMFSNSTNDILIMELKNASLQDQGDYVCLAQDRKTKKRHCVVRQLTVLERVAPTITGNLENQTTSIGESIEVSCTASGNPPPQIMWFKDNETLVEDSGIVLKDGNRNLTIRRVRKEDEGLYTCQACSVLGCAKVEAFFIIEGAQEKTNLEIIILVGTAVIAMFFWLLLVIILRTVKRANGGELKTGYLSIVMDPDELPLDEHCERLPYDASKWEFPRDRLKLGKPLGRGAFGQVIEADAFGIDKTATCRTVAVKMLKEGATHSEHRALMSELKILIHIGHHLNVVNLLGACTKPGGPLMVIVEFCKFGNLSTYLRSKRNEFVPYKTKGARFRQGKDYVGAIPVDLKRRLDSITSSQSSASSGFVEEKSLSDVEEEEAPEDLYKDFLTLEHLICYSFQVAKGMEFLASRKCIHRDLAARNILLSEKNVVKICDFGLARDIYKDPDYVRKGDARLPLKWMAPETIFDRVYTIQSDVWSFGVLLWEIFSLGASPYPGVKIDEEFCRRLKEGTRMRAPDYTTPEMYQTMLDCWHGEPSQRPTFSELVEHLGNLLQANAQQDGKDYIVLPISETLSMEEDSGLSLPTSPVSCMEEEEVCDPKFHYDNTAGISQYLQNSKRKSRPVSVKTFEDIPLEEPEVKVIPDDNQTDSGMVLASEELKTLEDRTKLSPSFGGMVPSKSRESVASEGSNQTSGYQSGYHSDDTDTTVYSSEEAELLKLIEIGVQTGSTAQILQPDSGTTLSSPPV

SMILES: COc1ccc(CN2C3CC2CN(c2ccc(-c4cc(NCCF)cn5ncc(C#N)c45)cn2)C3)cn1 [Compound 49, 6-((2-fluoroethyl)amino)-4-(6-(6-((6-methoxypyridin-3-yl)methyl)-3,6-diazabicyclo[3.1.1]hept-3-yl)pyridin-3-yl)pyrazolo[1,5-a]pyridine-3-carbonitrile]
- IC50 (RET G810R kinase): 1.85 nM
- inhibitory activity against G810R (in words) (RET G810R kinase): good inhibitory activity
- IC50 (RET G810S kinase): 0.53 nM
- inhibitory activity against G810S (in words) (RET G810S kinase): good inhibitory activity
- IC50 (Wild-type RET kinase; [1]): 0.19 nM
- GI50 (Ba/F3-KIF5B-RET cell; [2]): 1.52 nM
- IC50 (VEGFR2 kinase): 28.4 nM

SMILES: COc1ccc(CN2C3CC2CN(c2ccc(-c4cc(NCC(F)(F)F)cn5ncc(C#N)c45)cn2)C3)cn1 [Compound 56, 4-(6-(6-((6-methoxypyridin-3-yl)methyl)-3,6-diazabicyclo[3.1.1]heptan-3-yl)pyridin-3-yl)-6-((2,2,2-trifluoroethyl)amino)pyrazolo[1,5-a]pyridine-3-carbonitrile]
- IC50 (RET G810R kinase): 19.3 nM
- inhibitory activity against G810R (in words) (RET G810R kinase): good inhibitory activity
- IC50 (RET G810S kinase): 4.73 nM
- inhibitory activity against G810S (in words) (RET G810S kinase): good inhibitory activity
- IC50 (Wild-type RET kinase; [1]): 0.2 nM
- GI50 (Ba/F3-KIF5B-RET cell; [2]): 8.53 nM
- IC50 (VEGFR2 kinase): 103 nM

SMILES: COc1ccc(CN2C3CC2CN(c2ccc(-c4cc(N5CCCC5)cn5ncc(C#N)c45)cn2)C3)cn1 [Compound 55, 4-(6-(6-((6-methoxypyridin-3-yl)methyl)-3,6-diazabicyclo[3.1.1]heptyl-3-yl)pyridin-3-yl)-6-(pyrrolidin-1-yl)pyrazolo[1,5-a]pyridine-3-carbonitrile]
- IC50 (Wild-type RET kinase; [1]): 0.49 nM
- GI50 (Ba/F3-KIF5B-RET cell; [2]): 6.77 nM
- IC50 (VEGFR2 kinase): 8.48 nM

SMILES: COc1ccc(CN2C3CC2CN(c2cnc(-c4cc(OCCN5CCC6(CCOCC6)CC5)cn5ncc(C#N)c45)cn2)C3)cn1 [Compound 37, 6-(2-(3-oxa-9-azaspiro[5.5]undec-9-yl)ethoxy)-4-(5-(6-((6-methoxypyridin-3-yl)methyl)-3,6-diazabicyclo[3.1.1]heptan-3-yl)pyrazin-2-yl)pyrazolo[1,5-a]pyridine-3-carbonitrile]
- IC50 (Wild-type RET kinase; [1]): 5.7 nM
- IC50 (VEGFR2 kinase): 801 nM

SMILES: COc1ccc(CN2C3CC2CN(c2ccc(-c4cc(NCC(=O)N(C)C)cn5ncc(C#N)c45)cn2)C3)cn1 [Compound 59, 2-((3-cyano-4-(6-(6-((6-methoxypyridin-3-yl)methyl)-3,6-diazabicyclo[3.1.1]heptan-3-yl)pyridin-3-yl)pyrazolo[1,5-a]pyridin-6-yl)amino)-N,N-dimethylacetamide]
- IC50 (Wild-type RET kinase; [1]): 1.69 nM
- GI50 (Ba/F3-KIF5B-RET cell; [2]): 11.9 nM
- IC50 (VEGFR2 kinase): 93.8 nM

SMILES: COc1ccc(CN2C3CC2CN(c2cnc(-c4cc(OCC5C[C@H]6CC[C@@H](C5)N6)cn5ncc(C#N)c45)cn2)C3)cn1 (stereo partly drawn) [Compound 40, 6-(((1R, 5S)-8-azabicyclo[3.2.1]oct-3-yl)methoxy)-4-(5-(6-((6-methoxypyridine-3-yl)methyl)-3,6diazabicyclo[3.1.1]heptan-3-yl)pyrazin-2-yl)pyrazolo[1,5-a]pyridine-3-carbonitrile]
- IC50 (Wild-type RET kinase; [1]): 0.86 nM
- GI50 (Ba/F3-KIF5B-RET cell; [2]): 208 nM
- IC50 (VEGFR2 kinase): 112 nM

SMILES: COc1ccc(CN2C3CC2CN(c2ccc(-c4cc(N(C)CCN(C)C)cn5ncc(C#N)c45)cn2)C3)cn1 [Compound 61]
- IC50 (Wild-type RET kinase; [1]): 1.1 nM
- GI50 (Ba/F3-KIF5B-RET cell; [2]): 60.4 nM
- IC50 (VEGFR2 kinase): 482 nM

SMILES: COc1ccc(CN2C3CC2CN(c2cnc(-c4cc(OCCN5CC6(COC6)C5)cn5ncc(C#N)c45)cn2)C3)cn1 [Compound 36, 6-(2-(2-oxa-6-azaspiro[3.3]hept-6-yl)ethoxy)-4-(5-(6-((6-methoxypyridin-3-yl)methyl)-3,6-diazabicyclo[3.1.1]heptan-3-yl)pyrazin-2-yl)pyrazolo[1,5-a]pyridine-3-carbonitrile]
- IC50 (Wild-type RET kinase; [1]): 2.44 nM
- GI50 (Ba/F3-KIF5B-RET cell; [2]): 32.1 nM
- IC50 (VEGFR2 kinase): 454 nM

SMILES: COc1ccc(CN2C3CC2CN(c2cnc(-c4cc(OCC(C)(C)C#N)cn5ncc(C#N)c45)cn2)C3)cn1 [Compound 39, 6-(2-cyano-2-methylpropoxy)-4-(5-(6-((6-methoxypyridin-3-yl)methyl)-3,6-diazabicyclo[3.1.1]heptan-3-yl)pyrazinpyridin-2-yl)pyrazolo[1,5-a]pyridine-3-carbonitrile]
- IC50 (Wild-type RET kinase; [1]): 1.25 nM
- GI50 (Ba/F3-KIF5B-RET cell; [2]): 15.6 nM
- IC50 (VEGFR2 kinase): 259 nM

SMILES: COc1ccc(CN2CCN(c3ccc(-c4cc(OCCN5CCC6(CCOCC6)CC5)cn5ncc(C#N)c45)cn3)CC2)cn1 [Compound 14, 6-(2-(3-oxa-9-azaspiro[5.5]undec-9-yl)ethoxy)-4-(6-(4-((6-methoxypyridine-3-yl)methyl)piperazin-1-yl)pyridin-3-yl)pyrazolo[1,5-a]pyridine-3-carbonitrile]
- IC50 (Wild-type RET kinase; [1]): 1.6 nM
- GI50 (Ba/F3-KIF5B-RET cell; [2]): 260 nM

SMILES: COc1ccc(CN2C3CC2CN(c2cnc(-c4cc(OCCN5CC6(CCCOC6)C5)cn5ncc(C#N)c45)cn2)C3)cn1 [Compound 33, 6-(2-(6-oxa-2-azaspiro[3.5]non-2-yl)ethoxy)-4-(5-(6-((6-methoxypyridin-3-yl)methyl)-3,6-diazabicyclo[3.1.1]heptan-3-yl)pyrazin-2-yl)pyrazolo[1,5-a]pyridine-3-carbonitrile]
- IC50 (Wild-type RET kinase; [1]): 5.73 nM
- GI50 (Ba/F3-KIF5B-RET cell; [2]): 26 nM

SMILES: COc1ccc(CN2C3CC2CN(c2cnc(-c4cc(OCCN5CC6(CCCO6)C5)cn5ncc(C#N)c45)cn2)C3)cn1 [Compound 34, 6-(2-(5-oxa-2-azaspiro[3.4]oct-2-yl)ethoxy)-4-(5-(6-((6-methoxypyridin-3-yl)methyl)-3,6-diazabicyclo[3.1.1]heptan-3-yl)pyrazin-2-yl)pyrazolo[1,5-a]pyridine-3-carbonitrile]
- IC50 (Wild-type RET kinase; [1]): 2.04 nM
- GI50 (Ba/F3-KIF5B-RET cell; [2]): 13.8 nM

SMILES: COc1ccc(CN2C3CC2CN(c2cnc(-c4cc(OCCN5CC6CCC5C6)cn5ncc(C#N)c45)cn2)C3)cn1 (stereo not shown) [Compound 38, 6-(2-(2-azabicyclo[2.2.1]hept-2-yl)ethoxy)-4-(5-(6-((6-methoxypyridine-3-yl)methyl)-3,6-diazabicyclo[3.1.1]heptan-3-yl)pyrazin-2-yl)pyrazolo[1,5-a]pyridine-3-carbonitrile]
- IC50 (Wild-type RET kinase; [1]): 3.22 nM
- GI50 (Ba/F3-KIF5B-RET cell; [2]): 37.3 nM
- IC50 (VEGFR2 kinase): 666 nM

SMILES: COc1ccc(CN2C3CC2CN(c2cnc(-c4cc(OCCN5CCC6(CC5)COC6)cn5ncc(C#N)c45)cn2)C3)cn1 [Compound 30, 6-(2-(2-oxa-7-azaspiro[3.5]non-7-yl)ethoxy)-4-(5-(6-((6-methoxypyridin-3-yl)methyl)-3,6-diazabicyclo[3.1.1]heptan-3-yl)pyrazin-2-yl)pyrazolo[1,5-a]pyridine-3-carbonitrile]
- IC50 (Wild-type RET kinase; [1]): 3.98 nM
- GI50 (Ba/F3-KIF5B-RET cell; [2]): 63.4 nM

SMILES: COc1ccc(CN2C3CC2CN(c2cnc(-c4cc(OCCN5CCC6(CCCO6)CC5)cn5ncc(C#N)c45)cn2)C3)cn1 [Compound 25, 6-(2-(1-oxa-8-azaspiro[4.5]dec-8-yl)ethoxy)-4-(5-(6-((6-methoxypyridin-3-yl)methyl)-3,6-diazabicyclo[3.1.1]heptan-3-yl)pyrazin-2-yl)pyrazolo[1,5-a]pyridine-3-carbonitrile]
- IC50 (Wild-type RET kinase; [1]): 2.89 nM
- GI50 (Ba/F3-KIF5B-RET cell; [2]): 27.7 nM

SMILES: COc1ccc(CN2CCN(c3ccc(-c4cc(OCCN5CC6(COC6)C5)cn5ncc(C#N)c45)cn3)CC2)cn1 [Compound 13, 6-(2-(2-oxa-6-azaspiro[3.3]hept-6-yl)ethoxy)-4-(6-(4-((6-methoxypyridin-3-yl)methyl)piperazin-1-yl)pyridin-3-yl)pyrazolo[1,5-a]pyridine-3-carbonitrile]
- IC50 (Wild-type RET kinase; [1]): 0.8 nM
- GI50 (Ba/F3-KIF5B-RET cell; [2]): 224 nM

SMILES: COc1ccc(CN2C3CC2CN(c2cnc(-c4cc(OC(=O)NC(C)C)cn5ncc(C#N)c45)cn2)C3)cn1 [Compound 41, 3-cyano-4-(5-(6-((6-methoxypyridin-3-yl)methyl)-3,6-diazabicyclo[3.1.1]heptan-3-yl)pyrazin-2-yl)pyrazolo[1,5-a]pyridin-6-ylisopropylcarbamate]
- IC50 (Wild-type RET kinase): 6.2 nM
- GI50 (Ba/F3-KIF5B-RET cell; read-out: Ba/F3-KIF5B-RET cell activity, 72 h): 266 nM

SMILES: COc1ccc(CN2C3CC2CN(c2ccc(-c4cc(NCCO)cn5ncc(C#N)c45)cn2)C3)cn1 [Compound 51, 6-((2-hydroxyethyl)amino)-4-(6-(6-((6-methoxypyridin-3-yl)methyl)-3,6-diazabicyclo[3.1.1]hept-3-yl)pyridin-3-yl)pyrazolo[1,5-a]pyridine-3-carbonitrile]
- IC50 (Wild-type RET kinase; [1]): 0.22 nM
- IC50 (VEGFR2 kinase): 19.3 nM

SMILES: COc1ccc(CN2CCN(c3ccc(-c4cc(-c5cnn(C)c5)cn5ncc(C(N)=O)c45)cn3)CC2)cn1 [Compound 8, 4-(6-(4-((6-methoxypyridin-3-yl)methyl)piperazin-1-yl)pyridin-3-yl)-6-(1-methyl-1H-pyrazol-4-yl)pyrazolo[1,5-a]pyridine-3-carboxamide]
- IC50 (Wild-type RET kinase; [1]): 250 nM
- IC50 (VEGFR2 kinase): ≥ 5000 nM
